Laboratory results as given in publication PMC6934184, “Selective DNA-PKcs inhibition extends the therapeutic index of localized radiotherapy and chemotherapy” (The Journal of Clinical Investigation, 2019).

Target: T1, FGFR3 K650M (Homo sapiens, UniProt P22607, K650M)
T1 construct: purchased Thermo Fisher Scientific (Life Technologies) SelectScreen
Test: SelectScreen LanthaScreen
Type: binding
Settings: read-out: % displacement
How it was run: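 NU5455 was profiled across the SelectScreen Broad panel of kinase activity and binding assays. Z'LYTE reactions such as CSF1R ran at apparent Km ATP, while the Adapta CAMK1 assay used ATP listed as 10. Values are given as percent.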

T1 sequence (P22607 23-806 K650M): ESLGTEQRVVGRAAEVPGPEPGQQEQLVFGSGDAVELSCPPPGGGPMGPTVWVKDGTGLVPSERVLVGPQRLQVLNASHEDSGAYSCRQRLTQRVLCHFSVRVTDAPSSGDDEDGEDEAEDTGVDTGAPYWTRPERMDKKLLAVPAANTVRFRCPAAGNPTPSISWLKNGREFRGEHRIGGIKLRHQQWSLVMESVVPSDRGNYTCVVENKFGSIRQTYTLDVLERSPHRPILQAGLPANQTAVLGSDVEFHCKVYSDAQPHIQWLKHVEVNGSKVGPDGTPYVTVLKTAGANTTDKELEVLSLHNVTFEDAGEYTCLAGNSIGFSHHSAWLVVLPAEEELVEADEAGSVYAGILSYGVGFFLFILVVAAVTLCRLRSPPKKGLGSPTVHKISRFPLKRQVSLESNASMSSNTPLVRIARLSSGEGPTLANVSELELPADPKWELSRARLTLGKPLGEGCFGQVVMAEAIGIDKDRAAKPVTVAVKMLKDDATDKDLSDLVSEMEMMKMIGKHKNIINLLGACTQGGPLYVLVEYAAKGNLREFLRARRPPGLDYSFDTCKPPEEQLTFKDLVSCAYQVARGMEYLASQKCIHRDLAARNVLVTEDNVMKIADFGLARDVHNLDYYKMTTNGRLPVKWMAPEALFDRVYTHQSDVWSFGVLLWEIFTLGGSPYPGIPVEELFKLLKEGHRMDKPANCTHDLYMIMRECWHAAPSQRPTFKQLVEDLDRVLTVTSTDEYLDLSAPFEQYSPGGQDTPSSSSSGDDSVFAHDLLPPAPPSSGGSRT

In the case of `CN(C(=O)CN1CCOCC1)c1ccc2sc3c(-c4cccc5c(=O)cc(N6CC7CCC(C6)O7)oc45)cccc3c2c1` [NU5455], the inhibition at 1 µM is reported as 16.5%.
